Data: article PMC8040252, “1,2,4-Oxadiazole-Bearing Pyrazoles as Metabolically Stable Modulators of Store-Operated Calcium Entry” (ACS Medicinal Chemistry Letters, 2021)
Marks after values point to notes of the source that are not given here.

Legend:
[1] = tested on: Store-operated calcium entry (SOCE); test: SOCE in HEK cells, tBhQ store depletion and Ca2+ re-addition, Fura-2 calcium imaging; format: cell-based, human; conditions: Homo sapiens; for activity at 10 µM: HEK293, compound 10 μM, tBhQ 50 μM, vs control, mean ± SEM of three experiments, read-out: % SOCE residual activity (10 μM); for IC50: HEK293, mean ± SEM
Procedure: With this approach, 24 oxadiazole-bearing pyrazoles were synthesized and tested in human embryonic kidney (HEK) cells for SOCE inhibition. […] After 600 s, Ca^2+ was added and intracellular levels were measured in fluorescence microscopy with the calcium dye Fura-2. […] For these compounds, the cell viability was therefore evaluated. An MTT assay was performed and the compounds that affected cell viability by more than 25% at 10 μM were discarded (23, 31, and 33). […] According to both activity and cytotoxicity, for the selected five compounds, the representative traces are depicted in Figure 3.
Human embryonic kidney (Hek) cells were obtained from ATCC (Rockville, MD, USA) and were cultured in Dulbecco’s Modified Eagle’s Medium (DMEM; Sigma-Aldrich, Italy), supplemented with 10% heat-inactivated FBS (Gibco, Italy), L-glutamine […] (Sigma-Aldrich, Italy), 10 U/mL penicillin, and […] streptomycin (Sigma-Aldrich, Italy) at 37 °C, under a 5% CO2 humidified atmosphere. […]
(KRB, 135 mM NaCl, 5 mM KCl, 0.4 mM KH2PO4, 1 mM MgSO4, 5.5 mM glucose, 20mM HEPES, pH 7.4) containing 2 mM CaCl2 (30 min, room temperature). After which, cells were washed and incubated with KRB for other 30 min to allow de-esterification of […]. To measure SOCE, cells were depleted of calcium in the endoplasmic reticulum with 2,5-t-butylhydroquinone (tBhQ, 50 […]
For calcium imaging experiments, Hek cells were plated onto pre-treated poli-L-lysine (P4832, Sigma-Aldrich, Italy) glass coverslips of 24 mm in 6-well plates Cells were loaded with 5 µM of Fura-2 AM, 0.02% of Pluronic-127 (Life technologies, Italy) and 10 µM of sulfinpyrazone (Sigma-Aldrich, Italy) in KRB containing 2 mM CaCl2 for 30 min at RT. Cells were then washed once with KRB for 15 min for de-esterification of Fura-2 AM.
Coverslips were mounted into the acquisition chamber and placed on the stage of a Leica DMI6000 epifluorescent microscope equipped with S Fluor ×40/1.3 objective. Fura-2 AM was excited by alternate 340 and 380 nm using a Polychrome IV monochromator (Till Photonics, Germany), and the probe emission light was filtered through 520/20 bandpass filter and collected by a cooled CCD camera (Hamamatsu, Japan). The fluorescence signals were acquired and processed using MetaFluor software (Molecular Device, Sunnyvale, CA, USA). To quantify the differences in the amplitudes of Ca2+ transients, the ratio values were normalized using the formula ΔF/F0. […]
In calcium imaging experiments, data are presented as Mean +/- standard error (SEM) or Median and interquartile range (IQR). The normality of data distributions was assessed using the Shapiro−Wilk test. Nonparametric (Mann−Whitney U test and one-way) statistical analysis was used for comparisons of data. All statistical assessments were two-sided and a value of P <0.05 was considered statistically significant. Statistical analyses were performed using GraphPad Prism software (GraphPad Software, Inc., USA).

[2] = MTT cell viability assay in HEK cells; format: cell-based, human; conditions: human; for viability at 24 h, 10 µM: mean ± SEM; for cytotoxicity at 24 h, 10 µM: compounds discarded, read-out: cell viability affected by
Procedure: (§1) With this approach, 24 oxadiazole-bearing pyrazoles were synthesized and tested in human embryonic kidney (HEK) cells for SOCE inhibition. To this aim, intracellular Ca^2+ stores of HEK cells were emptied with t-butylhydroquinone (tBhQ, 50 μM) in the presence of the compounds at 10 μM concentration. After 600 s, Ca^2+ was added and intracellular levels were measured in fluorescence microscopy with the calcium dye Fura-2. […] For these compounds, the cell viability was therefore evaluated. An MTT assay was performed and the compounds that affected cell viability by more than 25% at 10 μM were discarded (23, 31, and 33). […] According to both activity and cytotoxicity, for the selected five compounds, the representative traces are depicted in Figure 3. […]
(§2) 3-(4,5-Dimethylthiazol-2-yl)-2,5-diphenyltetrazolium bromide (MTT) assay Hek cells were plated in 24-wells plate at 20.000 cells per well. After 24 h, cells were treated for other 24 h with the selected compounds. At the end of treatments, medium was removed and substituted by 300 µL of MTT reagent at the final concentration of 0.25 mg/mL for 60 min at 37 °C. Reactions were then stopped and the crystals were solubilized by adding isopropyl alcohol/HCl (1:1; vol:vol) (Sigma-Aldrich Inc., Italy), before reading the absorbance at 570 nm, using the multi-plate reader Victor 3V (PerkinElmer, Milan, Italy). […]
(§3) All statistical assessments were two-sided and a value of P <0.05 was considered statistically significant. Statistical analyses were performed using GraphPad Prism software (GraphPad Software, Inc., USA).

HEK cells = test: MTT cell viability assay in HEK cells; format: cell-based, human; conditions: 10 μM
Procedure: as §1, §2, §3

[3] = In vitro hepatic metabolic stability in MLS9 fraction with NADPH; format: in vitro ADME, mouse; conditions: after 1 h of incubation
Procedure: The five selected inhibitors (22, 27, 29, 32, and 42) and the identified SOCE enhancer (37) were then evaluated for their in vitro hepatic metabolic stability. To this aim, the candidates were incubated in MLS9 fraction supplied with NADPH and the residual substrate was measured after 1 h. Under these conditions, the oxadiazole-bearing pyrazoles resulted overall metabolically stable, with only two compounds affording a residual substrate lower than 80% and the remaining molecules higher than 90% after incubation (Table 1 and Supporting Information). In contrast, Pyr3 and CIC-37, which suffered from hydrolysis of the ester function, provided a residual substrate of 43 and 74%, respectively (Table 1).[35] Similarly, the residual substrate of Synta66 in MLM is of 15%, due to an important hydrolysis of the amide group, absent in our class (Table 1).[39]
In vitro metabolism and purity of lead compounds
In vitro metabolism studies
Mouse liver S9 (MLS9) (pooled male mouse CD-1, protein concentration: 20 mg/mL) were purchased from Corning B.V. Life Sciences (Amsterdam, The Netherlands) and used throughout this study. The standard incubation mixture (250 μL final volume) was carried out in a 50 mM TRIS (tris[hydroxymethyl]-aminomethane) + 150 mM KCl buffer (pH 7.4) containing 3.3 mM MgCl2, 1.3 mM β-NADP-Na 2, 3.3 mM glucose 6-phosphate, 0.4 Units/mL glucose 6-phosphate dehydrogenase (NADPH regenerating system), 5 μL of acetonitrile ([…]), and the substrate compounds at a concentration of 50 µM. After pre-equilibration of the mixture, an appropriate volume of MLS9 suspension was added to give a final protein concentration of 1.5 mg/mL. The mixture was shaken for 60 min at 37 °C. Each incubation was stopped by addition of 250 μL of ice-cold acetonitrile, vortexed, and centrifuged at 13000 rpm for 10 min. Control incubations were carried out without the presence of MLS9 suspension or cofactors or in absence of the substrate.
LC-UV method for purity and metabolic stability data determination: a Shimadzu HPLC system (Shimadzu, Kyoto, Japan), consisting of two LC-10AD Vp module pumps, an SLC-10A Vp system controller, an SIL-10AD Vp autosampler, and a DGU-14-A on-line degasser were used for the analysis. The SPD-M10Avp photodiode array detector was used to detect the analytes. LC-Solution 1.24 software was used to process the chromatograms.
• Column: Phenomenex Kinetex XB C18, 150 × 4.6 mm (5 µm d.p.) protected with a SecurityGuard® (Torrance, CA, USA).
A: 0.2% formic acid in water;
B: 0.2% formic acid in acetonitrile.

Row | Structure (SMILES) | activity at 10 µM [1] [%] | viability at 24 h, 10 µM [2] [%] | other results
1 | Cc1noc(-c2cnn(-c3ccc(NC(=O)c4ccc([N+](=O)[O-])cc4)cc3)c2C(F)(F)F)n1 [compound 27] | 40.8 ± 6.9 | 80.2 ± 7.4 | IC50 [1]: 5.5 ± 0.8 µM; cytotoxicity (HEK cells): not cytotoxic; MLS9 stability (residual substrate) [3]: >99% ^b
2 | CCCC(C)OC(=O)c1cnn(-c2ccc(-n3cc(-c4cccc(C(=O)O)c4)nn3)cc2)c1C(F)(F)F (centres unmarked) [CIC-37, reference compound] | 17.5 ± 1.6 | 93.6 ± 4.6 | IC50 [1]: 4.4 ± 1.2 µM
3 | Cc1noc(-c2cnn(-c3ccc(NC(=O)CCN4CCOCC4)cc3)c2C(F)(F)F)n1 [compound 39] | 95.9 ± 6.2 |  | 
4 | Cc1noc(-c2cnn(-c3ccc(NC(=O)c4ccc(C#N)c(F)c4)cc3)c2C(F)(F)F)n1 [compound 29] | 49.6 ± 6.5 | 101 ± 6.7 | IC50 [1]: 9.7 ± 2.3 µM; cytotoxicity (HEK cells): not cytotoxic; MLS9 stability (residual substrate) [3]: 73% ^b
5 | Cc1noc(-c2cnn(-c3ccc(NC(=O)c4c(C)noc4C)cc3)c2C(F)(F)F)n1 [compound 32] | 33.2 ± 1.9 | 77.7 ± 4.4 | IC50 [1]: 9.6 ± 2.5 µM; cytotoxicity (HEK cells): not cytotoxic; MLS9 stability (residual substrate) [3]: 99% ^b
6 | Cc1noc(-c2cnn(-c3ccc(NC(=O)c4snnc4C)cc3)c2C(F)(F)F)n1 [compound 33] | 46.5 ± 2.8 | 59.1 ± 6.3 | cytotoxicity at 24 h, 10 µM [2]: > 25%
7 | Cc1noc(-c2cnn(-c3ccc(NC(=O)c4c(F)cccc4F)cc3)c2C(F)(F)F)n1 [compound 22] | 38.6 ± 4.3 | 95.6 ± 8.5 | IC50 [1]: 3.1 ± 1.4 µM; cytotoxicity (HEK cells): not cytotoxic; MLS9 stability (residual substrate) [3]: >99% ^b
8 | Cc1noc(-c2cnn(-c3ccc(NC(=O)c4ccncc4F)cc3)c2C(F)(F)F)n1 [compound 20] | 53.6 ± 0.9 |  | 
9 | Cc1noc(-c2cnn(-c3ccc(NC(=O)c4cc(Br)c[nH]4)cc3)c2C(F)(F)F)n1 [compound 35] | 69.8 ± 2.9 |  | melting point: 205 to 206 °C
10 | COc1ccc(OC)c(-c2ccc(NC(=O)c3ccncc3F)cc2)c1 [Synta66, reference compound] | 9.2 ± 1.7 | 75.8 ± 8 | IC50 [1]: 0.2 ± 0.3 µM
11 | Cc1noc(-c2cnn(-c3ccc(NC(=O)c4c(C)cccc4F)cc3)c2C(F)(F)F)n1 [compound 21] | 56.7 ± 1.3 |  | 
12 | Cc1noc(-c2cnn(-c3ccc(NC(=O)c4ccc(C(F)(F)F)cc4)cc3)c2C(F)(F)F)n1 [compound 25] | 110 ± 5.9 |  | 
13 | CCOC(=O)c1cnn(-c2ccc(NC(=O)C(Cl)=C(Cl)Cl)cc2)c1C(F)(F)F [Pyr3, reference compound] | 8.9 ± 0.6 | 28.6 ± 0.5 | IC50 [1]: 0.5 ± 0.1 µM
14 | Cc1noc(-c2cnn(-c3ccc(NC(=O)COc4ccccc4)cc3)c2C(F)(F)F)n1 [compound 41] | 63.6 ± 3.9 |  | 
15 | Cc1noc(-c2cnn(-c3ccc(NC(=O)Cc4ccc([N+](=O)[O-])cc4)cc3)c2C(F)(F)F)n1 [compound 28] | 108 ± 3.9 |  | 
16 | Cc1noc(-c2cnn(-c3ccc(NC(=O)Cc4ccc(Cl)cc4)cc3)c2C(F)(F)F)n1 [compound 24] | 121 ± 2.2 |  | 
17 | Cc1noc(-c2cnn(-c3ccc(NC(=O)c4ccc(C(O)(C(F)(F)F)C(F)(F)F)cc4)cc3)c2C(F)(F)F)n1 [compound 26] | 109 ± 6.5 |  | 
18 | Cc1noc(-c2cnn(-c3ccc(NC(=O)c4ccc(Cl)cc4)cc3)c2C(F)(F)F)n1 [compound 23] | 40.8 ± 3.6 | 72.9 ± 11.7 | cytotoxicity at 24 h, 10 µM [2]: > 25%
19 | Cc1noc(-c2cnn(-c3ccc(NC(=O)c4ccc5nc[nH]c5c4)cc3)c2C(F)(F)F)n1 [compound 31] | 47.4 ± 1 | 56.5 ± 2.5 | cytotoxicity at 24 h, 10 µM [2]: > 25%
20 | CCCCCCCCCCCC(=O)Nc1ccc(-n2ncc(-c3nc(C)no3)c2C(F)(F)F)cc1 [compound 38] | 53.8 ± 4.4 |  | 
21 | Cc1noc(-c2cnn(-c3ccc(NC(=O)c4ccccc4I)cc3)c2C(F)(F)F)n1 [compound 30] | 53.2 ± 3.9 |  | 
22 | Cc1noc(-c2cnn(-c3ccc(NC(=O)c4cccc(C(=O)O)c4)cc3)c2C(F)(F)F)n1 [compound 19] | 77.2 ± 3.7 |  | 
23 | Cc1noc(-c2cnn(-c3ccc(NC(=O)C4CCS(=O)(=O)CC4)cc3)c2C(F)(F)F)n1 [compound 40] | 87.5 ± 3.8 |  | 
24 | COc1ccccc1NS(=O)(=O)c1cc(C(=O)Nc2ccc(-n3ncc(-c4nc(C)no4)c3C(F)(F)F)cc2)ccc1C [compound 36] | 59.9 ± 4.2 |  | 
